From US20250319056A1, “METHODS FOR TREATING CANCER” (THE TRUSTEES OF INDIANA UNIVERSITY, priority 2024, published 2025)
Where two headings read alike, the source gives them in different places.

Key:
HCT-116 cells = experiment: AlamarBlue cell viability assay, HCT-116 colon cancer cells; assay type: cell-based, human; settings: for Average Selectivity Index: CC50 non-cancer cells (FHC, FHs 74Int) compared to EC50 HCT-116; for EC50: AlamarBlue, 48 h with compound, read-out: Human Cell Viability EC50 Colon Cancer (HCT 116)
[1] = AlamarBlue cell viability assay, non-cancerous colon FHC cells; settings: human
[2] = AlamarBlue cell viability assay, non-cancerous intestine FHs-74Int cells; settings: human
DLD-1 cells = experiment: AlamarBlue cell viability assay, DLD-1 colon cancer cells; assay type: cell-based; settings: Homo sapiens, 48 h with compound, ^BP = curve baseline plateaued between ~10-20%, read-out: Human Cell Viability EC50 Colon Cancer (DLD1)
HT-29 cells = experiment: AlamarBlue cell viability assay, HT-29 colon cancer cells; assay type: cell-based; settings: Homo sapiens, 48 h with compound, ^BP = curve baseline plateaued between ~10-20%
[3] = FHC non-cancerous colon cells, Human Cell Viability CC50 Colon (FHC), non-cancerous colon cells, AlamarBlue, 48 h
[4] = FHs-74Int non-cancerous intestine cells, Human Cell Viability CC50 Intestine (FHs 74Int), non-cancerous intestine cells, AlamarBlue, 48 h

CC(=O)O[C@H]1C(=O)[C@@]2(C)[C@H]([C@H](OC(=O)c3ccccc3)[C@]3(O)C[C@H](OC(=O)[C@H](O)[C@@H](NC(=O)c4ccccc4)c4ccccc4)C(C)=C1C3(C)C)[C@]1(OC(C)=O)CO[C@@H]1C[C@@H]2O [Compound 70, Paclitaxel, reference compound]
Average Selectivity Index (HCT-116 cells): 2222.2 | EC50 (HCT-116 cells; Homo sapiens, HCT-116, 48 h): < 0.045 µM | CC50 at 48 h [1, 3]: > 100 µM | CC50 at 48 h [2, 4]: > 100 µM

COc1cc(NC(C)CCCN)c2ncccc2c1 (stereo not shown) [Compound 71, Primaquine, reference compound]
CC50 at 48 h [1, 3]: 77.4 µM | CC50 at 48 h [2, 4]: 56.6 µM

CC[n+]1c(-c2ccccc2)c2cc(N)ccc2c2ccc(N)cc21 [Compound 73, Ethidium bromide, reference compound]
CC50 at 48 h [1]: > 100 µM | CC50 at 48 h [2]: > 100 µM

CN(C)c1ccc2nc3ccc(=[N+](C)C)cc-3sc2c1 [Compound 74, Methylene blue trihydrate, reference compound]
EC50 (HCT-116 cells; trihydrate): 2.3 µM | Average Selectivity Index (HCT-116 cells; trihydrate): 11.9 | EC50 (HCT-116 cells; Homo sapiens, HCT-116, 48 h): 2.3 to 11 µM | CC50 at 48 h [1, 3]: 31.3 µM | CC50 at 48 h [2, 4]: 23.4 µM

CC(C)n1c(/C=C/C(O)CC(O)CC(=O)O)c(-c2ccc(F)cc2)c2ccccc21 (stereo not shown) [Compound 82, Fluvastatin sodium, reference compound]
Average Selectivity Index (HCT-116 cells): 11.6 | CC50 at 48 h [1, 3]: > 100 µM | CC50 at 48 h [2, 4]: > 100 µM

O=C(N/N=C/c1ccc([N+](=O)[O-])o1)c1cccs1 [Compound 120]
Average Selectivity Index (HCT-116 cells): 7.4 | EC50 (HCT-116 cells; Homo sapiens, HCT-116, 48 h): 9.1 µM | EC50 (DLD-1 cells): 14 µM | EC50 (HT-29 cells): 3.6 µM | CC50 at 48 h [1, 3]: 84 µM | CC50 at 48 h [2, 4]: 50 µM

O=C(N/N=C/c1ccc([N+](=O)[O-])o1)c1ccc(Cl)s1 [Compound 121]
Average Selectivity Index (HCT-116 cells): 6.2 | EC50 (HCT-116 cells; Homo sapiens, HCT-116, 48 h): 8.2 µM | EC50 (DLD-1 cells): 8 µM | EC50 (HT-29 cells): 5.7 µM | CC50 at 48 h [1, 3]: 51 µM | CC50 at 48 h [2, 4]: 49 µM

O=C(N/N=C/c1ccc([N+](=O)[O-])o1)c1ccccc1 [Compound 122]
Average Selectivity Index (HCT-116 cells): 6.5 | EC50 (HCT-116 cells; Homo sapiens, HCT-116, 48 h): 13 µM | EC50 (DLD-1 cells): 18 µM | EC50 (HT-29 cells): 4.9 µM | CC50 at 48 h [1, 3]: > 100 µM | CC50 at 48 h [2, 4]: 71 µM

O=C(N/N=C/c1ccc([N+](=O)[O-])o1)c1ccncc1 [Compound 123]
Average Selectivity Index (HCT-116 cells): 2.6 | EC50 (HCT-116 cells; Homo sapiens, HCT-116, 48 h): 28 µM | CC50 at 48 h [1, 3]: 70 µM | CC50 at 48 h [2, 4]: 75 µM

COc1ccc(C(=O)N/N=C/c2ccc([N+](=O)[O-])o2)cc1 [Compound 124]
Average Selectivity Index (HCT-116 cells): 16.1 | EC50 (HCT-116 cells; Homo sapiens, HCT-116, 48 h): 4.6 µM | EC50 (DLD-1 cells): 7.6 µM | EC50 (HT-29 cells): 2.7 µM | CC50 at 48 h [1, 3]: > 100 µM | CC50 at 48 h [2, 4]: 47 µM

CN(C)c1ccc(C(=O)N/N=C/c2ccc([N+](=O)[O-])o2)cc1 [Compound 125]
Average Selectivity Index (HCT-116 cells): 11.8 | EC50 (HCT-116 cells; Homo sapiens, HCT-116, 48 h): 8.5 µM | EC50 (DLD-1 cells): > 100 µM | EC50 (HT-29 cells): 0.29 µM | CC50 at 48 h [1, 3]: > 100 µM | CC50 at 48 h [2, 4]: > 100 µM

O=C(N/N=C/c1ccc([N+](=O)[O-])o1)c1cccc2ccccc12 [Compound 126]
Average Selectivity Index (HCT-116 cells): 5.7 | EC50 (HCT-116 cells; Homo sapiens, HCT-116, 48 h): 9.6 µM | EC50 (DLD-1 cells): 11 µM | EC50 (HT-29 cells): 4.4 µM | CC50 at 48 h [1, 3]: 58 µM | CC50 at 48 h [2, 4]: 52 µM

O=C(N/N=C/c1ccc([N+](=O)[O-])o1)c1ccccc1Oc1ccccc1 [Compound 127]
EC50 (HCT-116 cells; Homo sapiens, HCT-116, 48 h): 11 µM | EC50 (DLD-1 cells): 26 µM | CC50 at 48 h [1, 3]: 49 µM | CC50 at 48 h [2, 4]: 55 µM

CCN(CC)S(=O)(=O)c1cccc(C(=O)N/N=C/c2ccc([N+](=O)[O-])o2)c1 [Compound 129]
Average Selectivity Index (HCT-116 cells): 12.0 | EC50 (HCT-116 cells; Homo sapiens, HCT-116, 48 h): 7.8 µM | EC50 (DLD-1 cells): 8.9 µM | EC50 (HT-29 cells): 4.2 µM | CC50 at 48 h [1, 3]: > 100 µM | CC50 at 48 h [2, 4]: 8.7 µM

O=C(N/N=C/c1ccc([N+](=O)[O-])o1)c1ccc(NS(=O)(=O)c2cccs2)cc1 [Compound 130]
Average Selectivity Index (HCT-116 cells): 9.3 | EC50 (HCT-116 cells; Homo sapiens, HCT-116, 48 h): 9.1 µM | EC50 (DLD-1 cells): 57 µM | EC50 (HT-29 cells): 8.1 µM | CC50 at 48 h [1, 3]: > 100 µM | CC50 at 48 h [2, 4]: 69 µM

O=C(N/N=C/c1ccc([N+](=O)[O-])o1)c1ccc(NS(=O)(=O)c2ccc(Br)cc2)cc1 [Compound 131]
Average Selectivity Index (HCT-116 cells): 18.8 | EC50 (HCT-116 cells; Homo sapiens, HCT-116, 48 h): 5.3 µM | EC50 (DLD-1 cells): 29 µM | EC50 (HT-29 cells): 3.6 µM | CC50 at 48 h [1, 3]: > 100 µM | CC50 at 48 h [2, 4]: > 100 µM

CCOc1ccc(S(=O)(=O)Nc2ccc(C(=O)N/N=C/c3ccc([N+](=O)[O-])o3)cc2)cc1 [Compound 132, 4-ethoxy-N-(4-(2-((5-nitrofuran-2-yl)methylene)hydrazine-1-carbonyl)phenyl)benzenesulfonamide]
Average Selectivity Index (HCT-116 cells): 52.0 | EC50 (HCT-116 cells; Homo sapiens, HCT-116, 48 h): 1.8 µM | EC50 (DLD-1 cells): 18 µM | EC50 (HT-29 cells): 2.3 µM | CC50 at 48 h [1, 3]: 89 µM | CC50 at 48 h [2, 4]: > 100 µM

O=C1CN(/N=C/c2ccc(O)c3ncccc23)C(=O)N1 [Compound 133]
Average Selectivity Index (HCT-116 cells): 2.6 | EC50 (HCT-116 cells; Homo sapiens, HCT-116, 48 h): 39 µM | CC50 at 48 h [1, 3]: > 100 µM | CC50 at 48 h [2, 4]: > 100 µM
